Assay [1] deals with bacterial flora present in the mouth. The experiment in a line: Biofilm formation on extracted human teeth (CEPLAC staining). Type of assay: cell-based. To be noted: FeQ 340 μM; 48 hours of culturing. Here is the method: Molar teeth were extracted from human patients, and mouth swabs taken from each patient to obtain samples of each patient's bacterial flora present in the mouth. The mouth swabs were cultured in the laboratory using LB media in order to grow bacterial populations ordinarily present in the mouth of each patient. The extracted teeth were washed and brushed extensively using PBS buffer and ethanol. Each patient's tooth was then placed in the bacterial culture prepared from that patient's bacterial flora sample, and cultured aerobically for 24 hours in LB media. The teeth were then stained with CEPLAC™ (Manx Healthcare Ltd, Warwick, UK), and washed three times with PBS-Tween (50 mL) to determine if biofilm had been formed on the teeth.
All teeth stained red indicating the presence of biofilm on the teeth after just 24 hours. The same teeth were then cleaned using PBS buffer and ethanol, and the procedure repeated except with 48 hours of culturing in the presence of FeQ (340 μM).

Assay [2] is described as follows: Treatment of an acne patient. Type of assay: in vivo, human. Here is the method: A patient was treated continuously for 30 days by applying a solution of ferric quinate (340 μM) to their acne vulgarism (“acne”) once each day. Within 5 days of the start of treatment, their acne, which had not previously responded to treatment with antibiotics, began to show signs of healing.

Assay [3] has as its system PAO-1 strains of Pseudomonas aeruginosa. As to the kind of experiment: Biofilm formation on contact lens (ESEM). Type of assay: cell-based. The conditions noted are these: 340 μM in LB, 37° C., 24 hours. On the procedure: To investigate biofilm formation on the contact lens, clinically determined PAO-1 strains of Pseudomonas aeruginosa were incubated with the lenses in either Luria-Bertani Media (LB) or LB with a final concentration of 340 μM FeQ at 37° C. for 24 hours in a non-shaking incubator. The lenses were then washed 6 times with PBS+0.05% Tween, before being stored overnight in PBS+0.05% Tween. In preparation for the ESEM, formaldehyde was added to a final concentration of 1% and incubated for 10 minutes in order to inactivate the bacteria. The lenses were then washed 4 times with PBS+0.05% Tween, and immediately before analysis the lenses were washed a further two times with distilled water.

Assay [4] can be described thus: Broiler trial: growth performance. It is filed as in vivo, chicken (Ross 308 male broilers). Here is the method:
(§1) A study was performed to evaluate growth promotion and reduction of Campylobater carriage using FeQ and FeTyr in Ross 308 male broilers with 7 treatment groups. Each treatment group comprised four replicates of 10 birds per pen (40 birds/treatment group and 4 pens of 10 birds/treatment group), and there were 2 control groups and 5 test groups. All the test groups and one of the control groups were exposed at day 20 of the trial to dirty litter, which tested positive for Campylobacter. This method was used to provide a more natural method to Campylobater challenge the birds. Thus there was a positive control where one treatment group was challenged with Campylobacter and one negative control group where the birds were not challenged, and five treatment groups that were all challenged with Campylobacter. The total number of birds used in the 7 treatment groups was 280. Treatment group 1 was a negative control where birds just received the commercial feed, and were not challenged with dirty litter containing Campylobacter. Treatment group 2 was the positive control where the birds received the commercial feed, and were challenged with dirty litter containing Campylobater at day 20. Treatment group 3 received 0.22 g/L of FeQ in their drinking water and 0.22 g/Kg FeQ in their feed during the entire trial, and was challenged with dirty litter containing Campylobater at day 20. Treatment group 5 received 0.22 g/L of FeQ in their drinking water during the entire trial, and was challenged with dirty litter containing Campylobater at day 20. Treatment group 6 received 0.22 g/kg FeQ in their feed during the entire trial, and was challenged with dirty litter containing Campylobater at day 20. Treatment group 7 received 0.022 g/L FeQ in their drinking water during the entire trial, and was challenged with dirty litter containing Campylobater at day 20. Treatment group 8 received 0.02 g/L FeTyr in their drinking water during the entire trial, and was challenged with dirty litter containing Campylobater at day 20. The FeTyr was pre-dissolved in DMSO, and diluted to provide a solution of 0.02 g/L of FeTyr in water. (An additional treatment group 4 was terminated due to solubility issues.)
The birds were fed with a commercial three-phase feeding program using starter, grower and finisher feeds with formulations shown in Table 2. All diets had coccidiostat (MAXIBAN® at 0.0625% in starter and […] and MONTEBAN® at 0.06% in finisher phase). Xylanase (RONOZYME® WX at 200 g per ton) and phytase (RONOZYME® P at 150 grams per ton) were added to all diets.
The feeding program is show in Table 3. The birds were reared in floor pens to day 42, and fed starter, grower and finisher feed at day 0 to 11, 11 to 24, and 24 to 42 days, respectively. All birds were weighed individually and feed weigh backs recorded per pen at day 0, 11, 21, 24 and 42 days.
Prior to challenging the chickens with dirty litter containing Campylobacter at day 20, each pen was tested for Campylobater using cloacal swabs. All pens tested negative for Campylobater prior to the challenge. At day 20, litter, which was naturally Campylobacter-contaminated was tested to confirm the presence of Campylobacter, and then added (approximately 2 kg/pen) to the litter in all pens except in pens for treatment group 1 (the negative control). At day 28, the pen litter was sampled to confirm the presence or absence of Campylobacter. At day 41 and 42, caecal samples were taken from 3 birds per pen (12 birds per treatment group) and tested for Campylobater enumeration. At day 42, digesta, fecal samples, and caecal content was taken from all birds, and pooled per pen. Two birds per pen were also taken from treatment groups 1-3, euthanized, and blood samples taken. […]

Assay [5] deals with Campylobacter. The experiment in a line: Broiler trial: Campylobacter carriage in droppings and caeca. Type of assay: in vivo. To be noted: chickens challenged day 20. Here is the method:
as §1
Prior to challenging the chickens with dirty litter containing Campylobacter at day 20, each pen was tested for Campylobater using cloacal swabs. All pens tested negative for Campylobater prior to the challenge. At day 20, litter, which was naturally Campylobacter-contaminated was tested to confirm the presence of Campylobacter, and then added (approximately 2 kg/pen) to the litter in all pens except in pens for treatment group 1 (the negative control). At day 28, the pen litter was sampled to confirm the presence or absence of Campylobacter. At day 41 and 42, caecal samples were taken from 3 birds per pen (12 birds per treatment group) and tested for Campylobater enumeration. At day 42, digesta, fecal samples, and caecal content was taken from all birds, and pooled per pen. Two birds per pen were also taken from treatment groups 1-3, euthanized, and blood samples taken. Samples were analyzed for blood chemistry, including analysis for alkaline phosphatase, aspartate amino transferase, alanine amino transferase, gamma-glutamyl transferase, lactate dehydrogenase, total protein, albumin, globulin, amylase and glucose.

For assay [6], the system named is Pseudomonas aeruginosa PAO-1. The experiment in a line: Biofilm coverage rate on glass slide. It is filed as cell-based. To be noted: 100 μM; 72 hours.
Assay [7] deals with Staphylococcus epidermidis F1513. The experiment in a line: Biofilm formation on plastic coated UV beads. It is filed as cell-based. The conditions noted are these: different concentrations of Fe-QA; T=0 and T=24 h. On the procedure:
(§2) Bacteria (Enterococcus faecalis NCTC 12697, Staphylococcus epidermidis F1513 and Staphylococcus aureus ATCC 25923) were grown on Brain heart infusion (BHI) passaged to new medium either containing Fe-QA or alone. Growth suspensions were prepared at 0.0001 OD/mi and then allowed to grow at 37° C. under nounal atmospheric conditions for 24 h in BHI with plastic coated UV beads (Lascells). […], 10 μl suspension was serially diluted 10 fold to 10-3, 10-4, 10-5, 10-6, 10-7, 10-8. For each dilution, 10 μl was spotted on BHI agar plates and colonies counted after 24 h. The beads were also removed washed in PBS before adding to 1 ml PBS. After vortex mixing, 10 μl of the cell suspension was serially diluted as above and cell counts carried out.

In assay [8] the test system is Enterococcus faecalis NCTC 12697. As to the kind of experiment: Biofilm formation on plastic coated UV beads. It is filed as cell-based. The conditions noted are these: different concentrations of Fe-QA; T=0 and T=24 h. On the procedure: as §2
Assay [9] has as its system Staphylococcus aureus ATCC 25923. As to the kind of experiment: Biofilm formation on plastic coated UV beads. It is filed as cell-based. The conditions noted are these: different concentrations of Fe-QA; T=0 and T=24 h. On the procedure: as §2
For assay [10], the system named is uropathogenic Escherichia coli UPEC-536. As to the kind of experiment: Biofilm coverage rate on glass slide. Type of assay: cell-based. To be noted: 0.1 μM, 1 μM, 10 μM and 100 μM; 72 hours; listed as Fe-QA.
Assay [11] deals with Enteropathogenic E. coli (EPEC) E2348/69. The experiment in a line: Crystal violet assay of attachment to plastic well surface. It is filed as cell-based. The conditions noted are these: 48 hours. Here is the method: Enteropathogenic E. coli (EPEC) E2348/69 were grown in wells for 48 hours at 37° C. in the presence of FeQ (100 μM), and in the absence of FeQ (as control). After 48 hours, the wells were washed in order to remove suspended cells. Crystal violet was then added to each well. The wells were then washed to remove excess dye. A mixture of acetone/ethanol was then added to the wells to re-suspend any cells attached to the plastic surface of the wells, and dissolve any dye present. The presence of dye in each well was then quantified by measuring the O.D. at 570 nm.
Enteropathogenic E. coli (EPEC) E2348/69 were grown in wells for 48 hours at 37° C. in the presence of FeDOPA (10-250 μM), and in the absence of FeDOPA (as control). After 48 hours, the wells were washed in order to remove suspended cells. Crystal violet was then added to each well. The wells were then washed to remove excess dye. A mixture of acetone/ethanol was then added to the wells to re-suspend any cells attached to the plastic surface of the wells, and dissolve any dye present. The presence of dye in each well was then quantified by measuring the O.D. at 570 nm.

Assay [12] deals with mature EPEC-ΔcsrA biofilm. As to the kind of experiment: Disruption of preformed biofilm, BioFlux system. Type of assay: cell-based, E. coli. To be noted: FeDOPA 100 μM; 20 hours.
Where [13] appears, read: FeQ treatments 3, 5, 6, 7, FeTyr treatment 8, challenged day 20.
[14] abbreviates: treatment 3: 0.22 g/L FeQ in water + 0.22 g/kg FeQ in feed, challenged day 20.
[15] abbreviates: treatment 5: 0.22 g/L FeQ in water, challenged day 20.
Setting [16] is: treatment 6: 0.22 g/kg FeQ in feed, challenged day 20.
Where [17] appears, read: treatment 7: 0.022 g/L FeQ in water, challenged day 20.

Values joined by “and” are separate entries in the source; they are usually repeats but may differ in a detail not shown here. Equal entries are not always repeated. “Also recorded” adds a separate entry of the source. Marks after values point to notes of the source that are not given here.

As to `O=C([O-])C1(O)CC(O)C(O)C(O)C1.O=C([O-])C1(O)CC(O)C(O)C(O)C1.O=C([O-])C1(O)CC(O)C(O)C(O)C1.[Fe+3]` (stereo not drawn) [FeQ, ferric quinate], the “biofilm on teeth (red CEPLAC staining)” value in assay [1] is “no teeth stained red”. The “acne outcome after treatment for 30 days” value in assay [2] (solution 340 μM applied once each day) is “completely healed”. Besides, in assay [2] (solution 340 μM applied once each day for 30 days), the “recurrence of acne after discontinuation of treatment for over one year” value was “did not recur”. Moreover, the “time to first signs of healing of acne” value in [2] (solution 340 μM applied once each day, patient) was no more than 5 days. The “biofilm formation on contact lens (ESEM images)” value in [3] was “inhibits biofilm formation”. For the same compound, the “MFCR (mortality adjusted feed conversion ratio) 0-20” value in [4] (FeQ groups 3, 5, 6, 7 pooled, absence of Campylobacter challenge) worked out at 1.2996. Besides, the “MFCR at day 42 versus positive control” value in assay [4] (setting [13]) is “positive effect on MFCR”. The “average body weight at day 42 versus positive control” value in assay [4] (setting [13]) is “positive effect on growth”. Besides, the “ABW (average body weight) Day 0” value in assay [4] (setting [14]) was found to be 0.040 kg; in assay [4] (setting [15]) it was 0.040 kg; in assay [4] (setting [16]), 0.041 kg; in assay [4] (setting [17]), 0.040 kg. Also, the “MFCR (mortality adjusted feed conversion ratio) Day 0-11” value in [4] (setting [14]) was 1.181^ab; in assay [4] (setting [15]), 1.210^ab; in assay [4] (setting [16]), 1.168^a; in [4] (setting [17]) it was 1.236^b. The “MFCR (mortality adjusted feed conversion ratio) Day 0-42” value in [4] (setting [14]) is 1.595; in assay [4] (setting [15]), 1.560; in assay [4] (setting [16]) it was 1.563 and 1,563; in assay [4] (setting [17]) it was 1.612. Also, the “AFD (average feed intake) Day 0-11” value in [4] (setting [16]) turned out to be 0.360 kg. Besides, the “AWG (average weight gain) Day 0-11” value in assay [4] (setting [16]) was 0.310 kg. In addition, the “AWG (average weight gain) Day 11-20” value in assay [4] (setting [16]) came to 0.640 kg. In addition, in [5] (FeQ treatments 3, 5, 6, 7, FeTyr treatment 8), the “average Campylobacter cfu/g of caeca samples at day 42 versus positive control” value is “lower levels of Campylobacter in their caeca; also recorded: positive effect on reducing Campylobacter infection of poultry”. In addition, in [5] (FeQ treatments 3, 6, 7, FeTyr treatment 8), the “Campylobacter cfu/g of bird droppings at day 42 versus positive control” value was “positive effect on reducing Campylobacter infection of poultry”. For the same compound, the “Campylobacter colony forming units per gram of bird droppings at day 42” value was 4,860 cfu/g in [5] (treatment 3: 0.22 g/L FeQ in water + 0.22 g/kg FeQ in feed), 12,800 cfu/g in assay [5] (treatment 6: 0.22 g/kg FeQ in feed) and 900,000 cfu/g in [5] (treatment 7: 0.022 g/L FeQ in water). For the same compound, the “biofilm formation (coverage rate on glass slide)” value in assay [6] is recorded as “inhibits the formation of biofilm”; in [10] it was “inhibits founation of biofilm; also recorded: inhibits the formation of biofilm”. The “biofilm formation on plastic coated UV beads” value is given as “inhibited S. epidermidis biofilm formation” in assay [7], “inhibited E. faecalis biofilm formation” in assay [8] and “inhibited S. aureus biofilm formation” in [9]. Besides, the “attachment of EPEC cells to plastic well surface (crystal violet O.D. at 570 nm)” value in assay [11] (FeQ 100 μM) is “little or no attachment of bacterial cells to the surface and no biofilm formation”.

Consider Fe(DOPA)3 [FeDOPA], for which, in assay [12], the “dispersion of mature biofilm” value is “dispersed the biofilm”. Further, in [11] (FeDOPA 68-250 μM), the “attachment of EPEC cells to plastic well surface (crystal violet O.D. at 570 nm)” value was “attachment of bacterial cells to the surface and biofilm formation is inhibited”.
